These results are taken from patent EP0994109A2, “1-(3-(1-Pyrrolidinyl)propyl)-3-ethylcarbodiimide and a solid phase coupling agent” (ELI LILLY AND COMPANY, priority 1995, dated 1997).

Each structure is given as a SMILES string. Counter-ions that a name gives are not always drawn.

The test system of the test is neuronal protein extravasation. Briefly: Protein extravasation in dura after electrical stimulation of the trigeminal ganglion. To be noted: dose that inhibited the extravasation by 50%, approximated from dose-response curve. The test is classed as in vivo, rats or guinea pigs. The protocol:
Harlan Sprague-Dawley rats (225-325 g) or guinea pigs from Charles River Laboratories (225-325 g) were anesthetized with sodium pentobarbital intraperitoneally (65 mg/kg or 45 mg/kg respectively) and placed in a stereotaxic frame (David Kopf Instruments) with the incisor bar set at -3.5 mm for rats or -4.0 mm for guinea pigs. Following a midline sagital scalp incision, two pairs of bilateral holes were drilled through the skull (6 mm posteriorly, 2.0 and 4.0 mm laterally in rats; 4 mm posteriorly and 3.2 and 5.2 mm laterally in guinea pigs, all coordinates referenced to bregma). Pairs of stainless steel stimulating electrodes (Rhodes Medical Systems, Inc.) were lowered through the holes in both hemispheres to a depth of 9 mm (rats) or 10.5 mm (guinea pigs) from dura.
The femoral vein was exposed and a dose of the test compound was injected intravenously (1 mL/kg). Approximately 7 minutes later, a 50 mg/kg dose of Evans Blue, a fluorescent dye, was also injected intravenously. The Evans Blue complexed with proteins in the blood and functioned as a marker for protein extravasation. Exactly 10 minutes post-injection of the test compound, the left trigeminal ganglion was stimulated for 3 minutes at a current intensity of 1.0 mA (5 Hz, 4 msec duration) with a Model 273 potentiostat/ galvanostat (EG&G Princeton Applied Research).
Fifteen minutes following stimulation, the animals were killed and exsanguinated with 20 mL of saline. The top of the skull was removed to facilitate the collection of the dural membranes. The membrane samples were removed from both hemispheres, rinsed with water, and spread flat on microscopic slides. Once dried, the tissues were coverslipped with a 70% glycerol/water solution.
A fluorescence microscope (Zeiss) equipped with a grating monochromator and a spectrophotometer was used to quantify the amount of Evans Blue dye in each sample. An excitation wavelength of approximately 535 nm was utilized and the emission intensity at 600 nm was determined. The microscope was equipped with a motorized stage and also interfaced with a personal computer. This facilitated the computer-controlled movement of the stage with fluorescence measurements at 25 points (500 µm steps) on each dural sample. The mean and standard deviation of the measurements was determined by the computer.
The extravasation induced by the electrical stimulation of the trigeminal ganglion was an ipsilateral effect (i.e. occurs only on the side of the dura in which the trigeminal ganglion was stimulated). This allows the other (unstimulated) half of the dura to be used as a control. The ratio of the amount of extravasation in the dura from the stimulated side compared to the unstimulated side dura was calculated. Saline controls yielded a ratio of approximately 2.0 in rats and 1.8 in guinea pigs. […]
With `CNS(=O)(=O)Cc1ccc2[nH]cc(CCN(C)C)c2c1.O=C(O)CCC(=O)O` [Compound I, 3-[2-(dimethylamino)ethyl]-N-methyl-1H-indole-5-methanesulfonamide butane-1,4-dioate (1:1)], the “i.v. ID50” value was 2.6e-08 mmol/kg.

As for `CN(C)C1CCc2[nH]c3ccc(O)cc3c2C1` (centres unmarked) [Compound V, 6-hydroxy-3-dimethylamino-1,2,3,4-tetrahydrocarbazole], the “i.v. ID50” value was determined as 8.7e-09 mmol/kg.

With `Cn1cc(CCN2CCC(c3c[nH]c4ccc(F)cc34)CC2)cn1` [Compound II, 5-fluoro-3-<1-<2-<1-methyl-1H-pyrazol-4-yl>ethyl>-4-piperidinyl>-1H-indole hydrochloride], the “i.v. ID50” value was 8.6e-10 mmol/kg.

Regarding `CCN(CC)C1CCc2cccc(Cl)c2C1.Cl` (centres unmarked) [Compound IV, 8-chloro-2-diethylamino-1,2,3,4-tetrahydronaphthalene hydrochloride], the “i.v. ID50” value stood at 1.2e-07 mmol/kg.

As for `O=C(O)C(=O)O.Oc1ccc2[nH]cc(C3CCNCC3)c2c1` [Compound III, 5-hydroxy-3-(4-piperidinyl)-1H-indole oxalate], the “i.v. ID50” value was 8.9e-09 mmol/kg.
